In patent US20210338846A1, “COMPETITIVE PROSTATE-SPECIFIC MEMBRANE ANTIGEN (PSMA) BINDING AGENTS FOR REDUCTION OF NON-TARGET ORGAN UPTAKE OF RADIOLABELED PSMA INHIBITORS FOR PSMA POSITIVE TUMOR IMAGING AND RADIOPHARMACEUTICAL THERAPY” (The Johns Hopkins University, priority 2018, published 2021):

System: PSMA+ PC-3 PiP and PSMA− PC-3 flu tumors
Test: Biodistribution of [177Lu]VK-I-45 without and with co-injection of competing inhibitor [Lu]VK-I-45
Assay type: in vivo, mice
Settings: self blocking; only a modest reduction in PSMA+PiP tumor uptake
Text: VK-01-45 and its Lu-177 complex was reported in international PCT patent application publication no. WO 2017/165473 A, to Ray et al., which is incorporated herein by reference in its entirety. […] This approach can be applied to all compounds in WO 2017/165473 A1, to Ray et al.

O=C([O-])CN1CCN(CC(=O)[O-])CCN(CC(=O)NCCCCC(=O)N(CCCC[C@H](NC(=O)N[C@@H](CCC(=O)O)C(=O)O)C(=O)O)Cc2ccc(Br)cc2)CCN(CC(=O)[O-])CC1.[Lu+3] [[Lu]VK-01-45]
effect of competing inhibitor on two-hour kidney uptake and retention of [177Lu]VK-01-45: can be reduced
